The term CC50 denotes the concentration giving 50% cytotoxicity.

The test system of one assay is HEK293. Description: cells. It is filed as functional, Homo sapiens, ATCC CRL1573. The following applies: Homo sapiens, ATCC CRL1573, HEK293; ASSAY_TEST Inhibition of Cell Viability; detection method Resazurin; Fluorescence (ex560/em590); MEDIA DMEM with 10% FBS; plate type 384well; TC; CORNING #3712; time 18 hr; read-out: CC50. In general terms: Alamar Blue is a resazurin reagent that responds to reducing activity.

The next assay has as its system Staphylococcus aureus. The assay is described as follows: microbe, parasite or virus in culture. The following applies: ATCC 43300, 18 h, ASSAY_TEST Inhibition of Bacterial Growth, detection method Absorption (OD600), MEDIA CAMHB, plate type 384well, NBS, CORNING #3640.
The test system of assay [1] is Pseudomonas aeruginosa. The assay is described as follows: Antibacterial activity against Pseudomonas aeruginosa PAO397 [PAO1 d(mexAB-oprM) d(mexCD-oprJ) d(mexEF-oprN) d(mexJKL) d(mexXY) d(opmH)] (CO-ADD:GN_211); MIC in CAMBH media using NBS plates, by OD(600). It is filed as functional. The following applies: ASSAY_TEST Inhibition of Bacterial Growth, detection method Absorption (OD600), MEDIA CAMHB, plate type 384well, CORNING #3640, time 18 hr.

For the next assay, the system named is Escherichia coli. Description: microbe, parasite or virus in culture. The following applies: ATCC 25922, 18 h, ASSAY_TEST Inhibition of Bacterial Growth, detection method Absorption (OD600), MEDIA CAMHB, plate type 384well, NBS, CORNING #3640.
The subject of a further assay is Klebsiella pneumoniae. Description: microbe, parasite or virus in culture. The following applies: ATCC 700603, 18 h, ASSAY_TEST Inhibition of Bacterial Growth, detection method Absorption (OD600), MEDIA CAMHB, plate type 384well, NBS, CORNING #3640.
For a further assay, the system named is Acinetobacter baumannii. Description: microbe, parasite or virus in culture. The following applies: ATCC 19606, 18 h, ASSAY_TEST Inhibition of Bacterial Growth, detection method Absorption (OD600), MEDIA CAMHB, plate type 384well, NBS, CORNING #3640.
A further assay deals with Candida albicans. Description: microbe, parasite or virus in culture. The following applies: ATCC 90028, ASSAY_TEST Inhibition of Fungal Growth, detection method Absorption (OD530), plate type 384well, NBS, CORNING #3640.
For assay [2], the system named is Pseudomonas aeruginosa. Description: microbe, parasite or virus in culture. The following applies: ATCC 27853, 18 h, ASSAY_TEST Inhibition of Bacterial Growth, detection method Absorption (OD600), MEDIA CAMHB, plate type 384well, NBS, CORNING #3640.
Description: Antibacterial activity against Pseudomonas aeruginosa ATCC 27853 (CO-ADD:GN_042); MIC in CAMBH media using NBS plates, by OD(600)

≈ marks a conversion by molar mass, not a printed value. Bounds are passed on as bounds.

Description for Acinetobacter baumannii: Antibacterial activity against Acinetobacter baumannii ATCC 19606 (CO-ADD:GN_034); MIC in CAMBH media using NBS plates, by OD600
Description for Candida albicans: Antifungal activity against Candida albicans ATCC 90028 (CO-ADD:FG_001); MIC in YNB media using NBS plates, by OD630
Description for Cryptococcus neoformans: Antifungal activity against Cryptococcus neoformans H99 ATCC 208821 (CO-ADD:FG_002); MIC in YNB media using NBS plates, by Resazurin OD(600-570)
Description for Escherichia coli: Antibacterial activity against Escherichia coli ATCC 25922 (CO-ADD:GN_001); MIC in CAMBH media using NBS plates, by OD(600)
Description for Klebsiella pneumoniae: Antibacterial activity against Klebsiella pneumoniae MDR ATCC 70063 (CO-ADD:GN_003); MIC in CAMBH media using NBS plates, by OD(600)
Description for Staphylococcus aureus: Antibacterial activity against Staphylococcus aureus MRSA ATCC 43300 (CO-ADD:GP_020); MIC in CAMBH media, using NBS plates, by OD(600)

For the compound `O=c1cc(Nc2ccc3ccccc3c2)[nH]c(=O)[nH]1`, the 50% cytotoxic concentration (CC50) in the assay with HEK293 was > 20 µM. Moreover, the MIC in the assay with Staphylococcus aureus, with Pseudomonas aeruginosa [1], with Escherichia coli, against Klebsiella pneumoniae, against Acinetobacter baumannii and with Cryptococcus neoformans was > 20 µM each time. Also, the MIC in the assay on Candida albicans and in the assay on Pseudomonas aeruginosa [2] was > 20 µM each time.
With `CCOC(=O)N1CCN(c2ccc(Cl)cc2)CC1`, in the assay on HEK293, the CC50 was > 20 µM. Besides, the MIC against Staphylococcus aureus, against Pseudomonas aeruginosa [1], in the assay with Escherichia coli, against Klebsiella pneumoniae, in the assay on Acinetobacter baumannii and against Cryptococcus neoformans was > 20 µM each time. Moreover, the MIC in the assay with Candida albicans and in the assay with Pseudomonas aeruginosa [2] was > 20 µM each time.
With `COc1ccc(C)cc1NC(=O)c1ccc(S(=O)(=O)N2CCCCC2)cc1`, the CC50 in the assay with HEK293 was > 20 µM. Besides, the MIC in the assay with Staphylococcus aureus, in the assay with Pseudomonas aeruginosa [1], against Escherichia coli, in the assay on Klebsiella pneumoniae, in the assay on Acinetobacter baumannii and against Cryptococcus neoformans was > 20 µM throughout. In addition, the MIC in the assay with Candida albicans and with Pseudomonas aeruginosa [2] was > 20 µM in each case.
On to `Fc1ccc2c(/C=C/c3nnn[nH]3)c[nH]c2c1`, for which the CC50 in the assay on HEK293 was > 20 µM. Also, the MIC in the assay with Staphylococcus aureus, in the assay with Pseudomonas aeruginosa [1], with Escherichia coli, in the assay with Klebsiella pneumoniae, with Acinetobacter baumannii and with Cryptococcus neoformans was > 20 µM throughout. Further, the MIC with Candida albicans and in the assay on Pseudomonas aeruginosa [2] was > 20 µM in each case.
As for `O=C(Nc1nnc(-c2ccccc2)o1)c1ccc(F)cc1`, the cytotoxic concentration (CC50) in the assay with HEK293 is > 20 µM. Moreover, the MIC is 20 µM (≈ 5.67 µg/mL) in the assay with Staphylococcus aureus; > 20 µM against Pseudomonas aeruginosa [1]; > 20 µM in the assay on Escherichia coli; > 20 µM in the assay on Klebsiella pneumoniae; > 20 µM with Acinetobacter baumannii; 20 µM (≈ 5.67 µg/mL) against Cryptococcus neoformans. For the same compound, the MIC in the assay on Candida albicans and against Pseudomonas aeruginosa [2] was > 20 µM in each case.
`O=C(Nc1nnc(-c2ccc(Cl)cc2)o1)c1ccc(F)cc1`: the CC50 in the assay on HEK293 was > 20 µM. Further, the MIC in the assay with Staphylococcus aureus, against Pseudomonas aeruginosa [1], in the assay on Escherichia coli, against Klebsiella pneumoniae, with Acinetobacter baumannii and against Cryptococcus neoformans was > 20 µM each time. The MIC in the assay on Candida albicans and against Pseudomonas aeruginosa [2] was > 20 µM throughout.
Regarding `CCc1nc(N)nc(N)c1C#CC(C)c1cc(OC)cc(-c2ccncc2)c1` (configuration not stated), in the assay on HEK293, the 50% cytotoxic concentration (CC50) worked out at 6.39 µM. Moreover, the MIC in the assay on Staphylococcus aureus was 2.5 µM (≈ 0.934 µg/mL); against Pseudomonas aeruginosa [1] it was > 20 µM; with Escherichia coli it was > 20 µM; in the assay on Klebsiella pneumoniae, > 20 µM; against Acinetobacter baumannii it was > 20 µM; in the assay with Cryptococcus neoformans it was > 20 µM. The MIC with Candida albicans and in the assay on Pseudomonas aeruginosa [2] was > 20 µM each time.
Regarding `CC1(C)Cc2c(C#N)c(SCCc3ccccc3)nc(N3CCOCC3)c2CO1`, in the assay with HEK293, the CC50 is > 20 µM. The MIC in the assay on Staphylococcus aureus, in the assay with Pseudomonas aeruginosa [1], with Escherichia coli, with Klebsiella pneumoniae, in the assay with Acinetobacter baumannii and in the assay with Cryptococcus neoformans was > 20 µM throughout. For the same compound, the MIC in the assay with Candida albicans and against Pseudomonas aeruginosa [2] was > 20 µM in each case.
Consider `NC[C@H]1OB(O)c2c(OCCCO)cccc21`, for which the CC50 in the assay with HEK293 was > 20 µM. For the same compound, the MIC in the assay with Staphylococcus aureus was 20 µM (≈ 4.74 µg/mL); against Pseudomonas aeruginosa [1] it was 2.5 µM (≈ 0.593 µg/mL); in the assay with Escherichia coli, 2.5 µM (≈ 0.593 µg/mL); in the assay with Klebsiella pneumoniae it was 2.5 µM (≈ 0.593 µg/mL); against Acinetobacter baumannii, 5 µM (≈ 1.19 µg/mL); in the assay on Cryptococcus neoformans, > 20 µM. Besides, the MIC is > 20 µM in the assay on Candida albicans and 5 µM (≈ 1.19 µg/mL) against Pseudomonas aeruginosa [2].
For `O=C1NC(=S)N/C1=C\c1cc(Br)cc(Br)c1O`, the 50% cytotoxic concentration (CC50) with HEK293 is > 20 µM. Besides, the MIC with Staphylococcus aureus was > 20 µM; in the assay on Pseudomonas aeruginosa [1], 20 µM (≈ 7.56 µg/mL); against Escherichia coli it was > 20 µM; against Klebsiella pneumoniae it was > 20 µM; in the assay on Acinetobacter baumannii it was > 20 µM; with Cryptococcus neoformans it was > 20 µM. The MIC in the assay on Candida albicans and against Pseudomonas aeruginosa [2] was > 20 µM in each case.
With `Cc1c(CN(C)C(=O)/C=C/c2cnc3c(c2)C(C)(C)C(=O)N3)oc2ccccc12`, the half-maximal cytotoxic concentration (CC50) in the assay with HEK293 is > 20 µM. Moreover, the MIC against Staphylococcus aureus is 1.25 µM (≈ 0.487 µg/mL); against Pseudomonas aeruginosa [1] it was > 20 µM; against Escherichia coli, > 20 µM; in the assay with Klebsiella pneumoniae it was > 20 µM; in the assay with Acinetobacter baumannii it was > 20 µM; with Cryptococcus neoformans, > 20 µM. Further, the MIC in the assay on Candida albicans and against Pseudomonas aeruginosa [2] was > 20 µM in each case.
As for `O=C(N[C@H](CCS)C(=O)N[C@H](Cc1ccccc1)C(=O)O)c1cc2ccccc2[nH]1`, in the assay with HEK293, the 50% cytotoxic concentration (CC50) is > 20 µM. Moreover, the MIC in the assay with Staphylococcus aureus, in the assay with Pseudomonas aeruginosa [1], in the assay on Escherichia coli, with Klebsiella pneumoniae, with Acinetobacter baumannii and in the assay on Cryptococcus neoformans was > 20 µM in each case. For the same compound, the MIC with Candida albicans and in the assay on Pseudomonas aeruginosa [2] was > 20 µM throughout.
Turning to `C[C@@H]1O[C@@H]1P(=O)(O)O`, in the assay on HEK293, the CC50 is > 20 µM. Also, the MIC against Staphylococcus aureus, in the assay with Pseudomonas aeruginosa [1], with Escherichia coli, against Klebsiella pneumoniae, with Acinetobacter baumannii and against Cryptococcus neoformans was > 20 µM throughout. In addition, the MIC with Candida albicans and against Pseudomonas aeruginosa [2] was > 20 µM in each case.
In the case of `CN(C)[C@@H]1C(=O)C(C(N)=O)=C(O)[C@@]2(O)C(=O)C3=C(O)c4c(O)c(NC(=O)CN5CCCC5)cc(F)c4C[C@H]3C[C@@H]12`, the CC50 with HEK293 was > 20 µM. Further, the MIC was 0.312 µM (≈ 0.175 µg/mL) in the assay on Staphylococcus aureus; 0.625 µM (≈ 0.349 µg/mL) in the assay on Pseudomonas aeruginosa [1]; 0.313 µM (≈ 0.175 µg/mL) against Escherichia coli; 10 µM (≈ 5.59 µg/mL) in the assay with Klebsiella pneumoniae; > 20 µM against Acinetobacter baumannii; > 20 µM against Cryptococcus neoformans. Also, the MIC against Candida albicans was > 20 µM; against Pseudomonas aeruginosa [2] it was 0.625 µM (≈ 0.349 µg/mL).
`Nc1cc(N)c2nc(-c3ccccc3)c(Nc3ccc(F)cc3)nc2c1`: in the assay on HEK293, the CC50 was determined as 1.91 µM. Moreover, the MIC against Staphylococcus aureus, against Pseudomonas aeruginosa [1], in the assay on Escherichia coli, with Klebsiella pneumoniae, with Acinetobacter baumannii and with Cryptococcus neoformans was > 20 µM throughout. Besides, the MIC against Candida albicans and with Pseudomonas aeruginosa [2] was > 20 µM in each case.
As to `N#CCN1C(=O)COc2cc(F)c(N3C(=O)c4ccccc4C3=O)cc21`, the 50% cytotoxic concentration (CC50) in the assay with HEK293 is > 20 µM. Also, the MIC against Staphylococcus aureus, against Pseudomonas aeruginosa [1], in the assay with Escherichia coli, against Klebsiella pneumoniae, with Acinetobacter baumannii and in the assay with Cryptococcus neoformans was > 20 µM each time. For the same compound, the MIC in the assay on Candida albicans and in the assay with Pseudomonas aeruginosa [2] was > 20 µM each time.
Consider `OC1O[C@H](CSc2ccc(F)cc2)[C@@H](O)[C@H]1O` (some centres not stated), for which the cytotoxic concentration (CC50) in the assay on HEK293 is > 20 µM. Moreover, the MIC against Staphylococcus aureus, against Pseudomonas aeruginosa [1], in the assay on Escherichia coli, with Klebsiella pneumoniae, in the assay on Acinetobacter baumannii and against Cryptococcus neoformans was > 20 µM in each case. Further, the MIC in the assay with Candida albicans and in the assay on Pseudomonas aeruginosa [2] was > 20 µM throughout.
On to `CN(C)CCNC(=O)c1cccc2cccnc12`, for which the cytotoxic concentration (CC50) in the assay on HEK293 was > 20 µM. Moreover, the MIC in the assay on Staphylococcus aureus, in the assay on Pseudomonas aeruginosa [1], in the assay on Escherichia coli, in the assay on Klebsiella pneumoniae, in the assay on Acinetobacter baumannii and against Cryptococcus neoformans was > 20 µM in each case. For the same compound, the MIC in the assay with Candida albicans and in the assay with Pseudomonas aeruginosa [2] was > 20 µM each time.

(Values after ChEMBL document CHEMBL4513161, “CO-ADD screening of MMV (CH) - Pandemic Response Box” (2021).)
